Assay [1] deals with Hepatocyte growth factor receptor (Homo sapiens) (UniProt P08581). The assay is described as follows: Inhibition of MET in human PC3 cell lysates at 10 uM using desthiobiotin-tagged ATP probe AX9989 followed by trypsinization by LC/MS analysis. The settings on record: PC-3.
In assay [2] the target is Phosphatidylinositol 4-kinase beta (Homo sapiens) (UniProt Q9UBF8). The assay is described as follows: Inhibition of PI4KB in human PC3 cell lysates at 10 uM using desthiobiotin-tagged ATP probe AX9989 followed by trypsinization by LC/MS analysis. As to conditions: PC-3.
Assay [3] has as its target T1, Serine/threonine-protein kinase TAO3 (Homo sapiens) (UniProt Q9H2K8).
T1 sequence (whole entry): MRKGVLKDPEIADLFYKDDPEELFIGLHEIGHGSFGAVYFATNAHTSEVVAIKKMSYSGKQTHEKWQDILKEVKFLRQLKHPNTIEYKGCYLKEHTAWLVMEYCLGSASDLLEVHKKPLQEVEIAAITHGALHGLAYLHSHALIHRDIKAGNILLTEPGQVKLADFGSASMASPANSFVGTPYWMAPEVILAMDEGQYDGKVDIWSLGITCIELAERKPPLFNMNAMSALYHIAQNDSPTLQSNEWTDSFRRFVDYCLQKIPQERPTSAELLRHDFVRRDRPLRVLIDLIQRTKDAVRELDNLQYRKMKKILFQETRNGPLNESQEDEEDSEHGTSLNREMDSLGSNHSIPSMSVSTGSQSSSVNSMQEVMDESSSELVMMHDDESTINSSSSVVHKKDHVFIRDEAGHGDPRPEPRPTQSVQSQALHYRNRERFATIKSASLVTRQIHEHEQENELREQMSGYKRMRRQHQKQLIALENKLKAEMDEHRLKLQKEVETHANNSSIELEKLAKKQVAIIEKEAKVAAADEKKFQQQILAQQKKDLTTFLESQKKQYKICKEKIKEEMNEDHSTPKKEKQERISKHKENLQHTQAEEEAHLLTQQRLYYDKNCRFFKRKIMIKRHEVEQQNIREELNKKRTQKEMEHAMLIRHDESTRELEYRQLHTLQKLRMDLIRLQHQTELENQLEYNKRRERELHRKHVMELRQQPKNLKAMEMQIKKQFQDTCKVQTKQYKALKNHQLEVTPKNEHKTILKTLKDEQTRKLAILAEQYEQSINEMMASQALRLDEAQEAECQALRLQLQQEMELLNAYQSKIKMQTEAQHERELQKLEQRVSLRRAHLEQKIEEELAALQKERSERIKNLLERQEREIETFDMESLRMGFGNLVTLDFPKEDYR
The assay is described as follows: Inhibition of TAO3 in human PC3 cell lysates at 10 uM using desthiobiotin-tagged ATP probe AX9989 followed by trypsinization by LC/MS analysis. As to conditions: PC-3.

Assay [4] addresses MAP/microtubule affinity-regulating kinase 3 (Homo sapiens) (UniProt P27448). The assay is described as follows: Inhibition of MARK3 in human PC3 cell lysates at 10 uM using desthiobiotin-tagged ATP probe AX9989 followed by trypsinization by LC/MS analysis. The settings on record: PC-3.
Assay [5] concerns PC-3. The assay is described as follows: Inhibition of KHS2 in human PC3 cell lysates at 10 uM using desthiobiotin-tagged ATP probe AX9989 followed by trypsinization by LC/MS analysis. The assay is classed as cell-free.
Assay [6] concerns the target T2, Ephrin type-B receptor 2 (Homo sapiens) (UniProt P29323).
T2 sequence (whole entry): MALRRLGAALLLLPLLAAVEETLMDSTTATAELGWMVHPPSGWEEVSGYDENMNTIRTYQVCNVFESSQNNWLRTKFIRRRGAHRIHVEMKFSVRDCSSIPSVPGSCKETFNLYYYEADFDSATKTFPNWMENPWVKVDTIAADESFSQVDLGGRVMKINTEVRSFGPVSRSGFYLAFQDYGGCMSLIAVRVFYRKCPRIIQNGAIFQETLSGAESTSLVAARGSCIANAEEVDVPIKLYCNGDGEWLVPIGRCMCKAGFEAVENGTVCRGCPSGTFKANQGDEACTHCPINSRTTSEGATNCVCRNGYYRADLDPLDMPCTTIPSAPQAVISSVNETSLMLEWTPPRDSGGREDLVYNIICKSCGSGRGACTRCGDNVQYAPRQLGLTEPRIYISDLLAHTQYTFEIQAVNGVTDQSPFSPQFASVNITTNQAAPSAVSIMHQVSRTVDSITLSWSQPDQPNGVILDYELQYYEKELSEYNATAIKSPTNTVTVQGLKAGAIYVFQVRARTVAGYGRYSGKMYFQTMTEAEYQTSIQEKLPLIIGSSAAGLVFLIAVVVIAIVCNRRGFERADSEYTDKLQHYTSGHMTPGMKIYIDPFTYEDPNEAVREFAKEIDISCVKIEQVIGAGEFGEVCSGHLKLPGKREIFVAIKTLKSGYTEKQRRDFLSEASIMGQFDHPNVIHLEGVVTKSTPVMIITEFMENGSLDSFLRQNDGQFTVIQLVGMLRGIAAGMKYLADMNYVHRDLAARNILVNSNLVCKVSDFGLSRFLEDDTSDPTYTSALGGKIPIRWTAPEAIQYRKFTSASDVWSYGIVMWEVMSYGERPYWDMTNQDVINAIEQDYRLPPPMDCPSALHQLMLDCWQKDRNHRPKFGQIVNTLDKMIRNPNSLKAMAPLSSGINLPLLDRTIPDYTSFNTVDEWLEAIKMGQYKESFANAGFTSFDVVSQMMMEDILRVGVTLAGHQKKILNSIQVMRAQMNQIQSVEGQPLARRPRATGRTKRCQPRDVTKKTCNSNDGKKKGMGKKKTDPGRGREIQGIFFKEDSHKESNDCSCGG
The assay is described as follows: Inhibition of EphB2 in human PC3 cell lysates at 10 uM using desthiobiotin-tagged ATP probe AX9989 followed by trypsinization by LC/MS analysis. The settings on record: PC-3.

The target of assay [7] is Cyclin-dependent kinase 16 (Homo sapiens) (UniProt Q00536). The assay is described as follows: Inhibition of PCTAIRE1 in human PC3 cell lysates at 10 uM using desthiobiotin-tagged ATP probe AX9989 followed by trypsinization by LC/MS analysis. The settings on record: PC-3.
Assay [8] has as its target Proto-oncogene tyrosine-protein kinase Src (Homo sapiens) (UniProt P12931). The assay is described as follows: Inhibition of SRC in human PC3 cell lysates at 10 uM using desthiobiotin-tagged ATP probe AX9989 followed by trypsinization by LC/MS analysis. The settings on record: PC-3.
Assay [9] deals with SRSF protein kinase 2 (Homo sapiens) (UniProt P78362). The assay is described as follows: Inhibition of SRPK2 in human PC3 cell lysates at 10 uM using desthiobiotin-tagged ATP probe AX9989 followed by trypsinization by LC/MS analysis. As to conditions: PC-3.
For assay [10], the target named is Glycogen synthase kinase-3 beta (Homo sapiens) (UniProt P49841). The assay is described as follows: Inhibition of GSK3beta in human PC3 cell lysates at 10 uM using desthiobiotin-tagged ATP probe AX9989 followed by trypsinization by LC/MS analysis. As to conditions: PC-3.
The target in assay [11] is Ribosomal protein S6 kinase alpha-3 (Homo sapiens) (UniProt P51812). The assay is described as follows: Inhibition of RSK2 domain2 in human PC3 cell lysates at 10 uM using desthiobiotin-tagged ATP probe AX9989 followed by trypsinization by LC/MS analysis. As to conditions: PC-3.
Chain of Ribosomal protein S6 kinase alpha-3 (Homo sapiens) (P51812 whole entry, the tested form may be a part): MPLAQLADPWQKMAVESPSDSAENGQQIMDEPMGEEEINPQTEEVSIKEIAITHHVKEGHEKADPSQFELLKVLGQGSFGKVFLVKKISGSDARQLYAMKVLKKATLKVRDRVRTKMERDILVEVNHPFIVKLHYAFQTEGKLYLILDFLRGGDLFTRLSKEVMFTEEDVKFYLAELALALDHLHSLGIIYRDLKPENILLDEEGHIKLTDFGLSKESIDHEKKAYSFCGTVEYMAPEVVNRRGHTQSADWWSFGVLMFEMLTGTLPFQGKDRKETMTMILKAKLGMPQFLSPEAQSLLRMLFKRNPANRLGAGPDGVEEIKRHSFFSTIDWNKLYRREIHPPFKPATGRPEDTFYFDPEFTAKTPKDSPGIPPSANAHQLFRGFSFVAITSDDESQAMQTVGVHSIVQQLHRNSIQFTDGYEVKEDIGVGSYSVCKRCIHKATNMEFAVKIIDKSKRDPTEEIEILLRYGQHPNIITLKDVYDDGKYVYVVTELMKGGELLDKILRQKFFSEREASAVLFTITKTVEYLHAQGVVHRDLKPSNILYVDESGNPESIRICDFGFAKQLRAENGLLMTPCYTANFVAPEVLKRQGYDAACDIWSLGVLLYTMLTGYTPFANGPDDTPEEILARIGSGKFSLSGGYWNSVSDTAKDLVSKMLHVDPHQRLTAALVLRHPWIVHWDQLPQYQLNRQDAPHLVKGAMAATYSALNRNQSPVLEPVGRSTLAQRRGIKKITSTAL

Chain of SRSF protein kinase 2 (Homo sapiens) (P78362 whole entry, looked up): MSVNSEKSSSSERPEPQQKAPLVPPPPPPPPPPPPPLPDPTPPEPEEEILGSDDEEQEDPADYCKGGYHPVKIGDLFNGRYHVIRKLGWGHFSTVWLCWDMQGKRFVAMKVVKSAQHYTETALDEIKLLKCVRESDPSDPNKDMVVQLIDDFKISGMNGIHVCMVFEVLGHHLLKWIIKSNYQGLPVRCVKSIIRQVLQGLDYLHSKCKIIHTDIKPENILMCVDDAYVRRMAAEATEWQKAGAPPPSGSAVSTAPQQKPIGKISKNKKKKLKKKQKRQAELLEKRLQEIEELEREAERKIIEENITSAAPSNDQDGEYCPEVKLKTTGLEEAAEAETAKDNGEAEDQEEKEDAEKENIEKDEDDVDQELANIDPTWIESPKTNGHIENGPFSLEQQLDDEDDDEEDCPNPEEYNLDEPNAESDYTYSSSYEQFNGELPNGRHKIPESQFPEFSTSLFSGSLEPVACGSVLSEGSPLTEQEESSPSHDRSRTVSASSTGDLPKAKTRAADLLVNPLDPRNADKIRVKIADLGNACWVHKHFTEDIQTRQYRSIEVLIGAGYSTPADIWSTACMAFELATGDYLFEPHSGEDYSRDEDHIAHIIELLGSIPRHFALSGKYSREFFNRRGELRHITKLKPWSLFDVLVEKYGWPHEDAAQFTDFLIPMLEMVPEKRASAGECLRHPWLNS
Chain of Phosphatidylinositol 4-kinase beta (Homo sapiens) (Q9UBF8 2-816 limits assumed): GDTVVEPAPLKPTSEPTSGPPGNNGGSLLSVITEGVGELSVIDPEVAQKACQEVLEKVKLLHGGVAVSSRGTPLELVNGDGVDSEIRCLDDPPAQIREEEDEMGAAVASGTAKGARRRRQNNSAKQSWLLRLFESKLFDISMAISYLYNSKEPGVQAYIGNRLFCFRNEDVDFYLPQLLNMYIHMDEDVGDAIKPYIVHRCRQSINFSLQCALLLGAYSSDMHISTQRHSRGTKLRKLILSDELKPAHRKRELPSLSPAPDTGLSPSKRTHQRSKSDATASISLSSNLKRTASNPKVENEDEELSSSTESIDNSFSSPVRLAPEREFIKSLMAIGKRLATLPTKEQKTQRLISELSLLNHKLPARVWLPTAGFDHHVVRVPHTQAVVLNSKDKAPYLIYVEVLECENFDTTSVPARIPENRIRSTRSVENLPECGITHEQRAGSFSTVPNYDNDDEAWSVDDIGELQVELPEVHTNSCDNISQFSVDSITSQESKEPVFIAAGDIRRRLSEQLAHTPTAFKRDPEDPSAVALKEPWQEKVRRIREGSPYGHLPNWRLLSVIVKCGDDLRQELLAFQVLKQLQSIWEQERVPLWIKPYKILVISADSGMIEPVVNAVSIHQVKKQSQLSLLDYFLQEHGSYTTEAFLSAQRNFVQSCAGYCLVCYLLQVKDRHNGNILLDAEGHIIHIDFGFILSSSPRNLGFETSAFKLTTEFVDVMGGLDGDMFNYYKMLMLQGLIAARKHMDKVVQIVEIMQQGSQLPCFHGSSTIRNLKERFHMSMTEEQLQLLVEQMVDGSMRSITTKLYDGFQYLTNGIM
Chain of Glycogen synthase kinase-3 beta (Homo sapiens) (P49841 whole entry, looked up, the tested form may be a part): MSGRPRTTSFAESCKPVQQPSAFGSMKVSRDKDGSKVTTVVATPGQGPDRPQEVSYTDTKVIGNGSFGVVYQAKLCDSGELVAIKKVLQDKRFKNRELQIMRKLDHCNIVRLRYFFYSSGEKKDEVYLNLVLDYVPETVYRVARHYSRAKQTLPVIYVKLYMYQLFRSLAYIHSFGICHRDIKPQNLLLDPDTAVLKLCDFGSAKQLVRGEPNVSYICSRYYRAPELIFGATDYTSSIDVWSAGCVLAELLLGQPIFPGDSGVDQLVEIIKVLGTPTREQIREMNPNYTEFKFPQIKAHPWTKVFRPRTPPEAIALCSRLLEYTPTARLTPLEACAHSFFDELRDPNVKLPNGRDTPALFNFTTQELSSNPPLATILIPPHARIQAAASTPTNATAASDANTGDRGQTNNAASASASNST
Chain of Cyclin-dependent kinase 16 (Homo sapiens) (Q00536 whole entry): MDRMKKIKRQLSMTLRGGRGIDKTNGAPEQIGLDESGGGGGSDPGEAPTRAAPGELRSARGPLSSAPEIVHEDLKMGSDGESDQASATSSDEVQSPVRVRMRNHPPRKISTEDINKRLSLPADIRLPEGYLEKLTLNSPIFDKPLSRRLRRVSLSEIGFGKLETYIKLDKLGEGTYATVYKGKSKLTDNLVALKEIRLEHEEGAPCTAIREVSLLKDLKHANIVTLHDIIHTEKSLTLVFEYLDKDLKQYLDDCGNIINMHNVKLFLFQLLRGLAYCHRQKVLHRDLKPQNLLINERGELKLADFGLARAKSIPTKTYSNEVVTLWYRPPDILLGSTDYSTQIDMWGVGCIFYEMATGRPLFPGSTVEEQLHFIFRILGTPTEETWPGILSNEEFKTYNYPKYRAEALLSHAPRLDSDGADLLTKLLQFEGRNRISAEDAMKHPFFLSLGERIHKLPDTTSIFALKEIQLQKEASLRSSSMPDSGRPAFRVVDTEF
Chain of Proto-oncogene tyrosine-protein kinase Src (Homo sapiens) (P12931 2-536 limits assumed): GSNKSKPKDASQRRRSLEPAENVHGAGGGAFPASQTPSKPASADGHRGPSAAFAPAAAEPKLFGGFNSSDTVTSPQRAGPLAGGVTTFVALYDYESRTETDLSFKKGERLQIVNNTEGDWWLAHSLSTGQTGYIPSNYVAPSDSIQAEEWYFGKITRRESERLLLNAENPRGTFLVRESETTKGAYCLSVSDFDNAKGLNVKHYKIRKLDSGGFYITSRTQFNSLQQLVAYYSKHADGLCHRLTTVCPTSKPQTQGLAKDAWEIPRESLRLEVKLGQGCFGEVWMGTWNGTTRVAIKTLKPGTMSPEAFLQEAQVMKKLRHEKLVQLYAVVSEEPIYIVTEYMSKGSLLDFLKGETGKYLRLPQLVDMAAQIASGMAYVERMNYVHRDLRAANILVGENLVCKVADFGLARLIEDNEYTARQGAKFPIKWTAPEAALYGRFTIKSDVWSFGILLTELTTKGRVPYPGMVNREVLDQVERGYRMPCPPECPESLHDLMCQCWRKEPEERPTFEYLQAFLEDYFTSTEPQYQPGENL
Chain of MAP/microtubule affinity-regulating kinase 3 (Homo sapiens) (P27448 whole entry, looked up): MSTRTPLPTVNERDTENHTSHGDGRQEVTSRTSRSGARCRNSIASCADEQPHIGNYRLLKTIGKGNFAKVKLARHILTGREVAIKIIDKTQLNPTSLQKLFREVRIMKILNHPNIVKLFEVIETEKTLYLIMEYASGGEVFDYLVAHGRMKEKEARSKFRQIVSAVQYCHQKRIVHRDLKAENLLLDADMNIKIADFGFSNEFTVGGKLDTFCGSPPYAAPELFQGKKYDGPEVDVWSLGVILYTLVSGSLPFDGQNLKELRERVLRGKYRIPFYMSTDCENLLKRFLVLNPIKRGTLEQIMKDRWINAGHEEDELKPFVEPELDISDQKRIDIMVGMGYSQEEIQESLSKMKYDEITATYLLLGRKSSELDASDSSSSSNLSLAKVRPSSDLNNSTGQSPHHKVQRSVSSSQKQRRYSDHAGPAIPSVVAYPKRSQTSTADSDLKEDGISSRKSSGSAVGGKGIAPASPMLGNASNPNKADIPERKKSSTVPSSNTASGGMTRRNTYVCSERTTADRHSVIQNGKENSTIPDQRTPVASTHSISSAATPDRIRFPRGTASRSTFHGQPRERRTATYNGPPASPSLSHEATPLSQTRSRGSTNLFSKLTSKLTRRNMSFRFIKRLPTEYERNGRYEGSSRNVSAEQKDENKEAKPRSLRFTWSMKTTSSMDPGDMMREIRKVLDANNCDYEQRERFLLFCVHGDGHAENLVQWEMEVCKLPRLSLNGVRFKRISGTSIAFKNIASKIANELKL

As for `CC[C@@H](NC(=O)c1ccc2nc(N[C@H]3CC[C@H](O)CC3)c3nccn3c2c1)c1ccccc1`, the inhibition in assay [1], in assay [2], in [3], in assay [4], in assay [5] and in assay [6] was less than 35% each time. Besides, the inhibition in assay [7], in assay [8], in assay [9], in assay [10] and in [11] was less than 35% each time.

For the compound `C[C@@H](NC(=O)c1ccc2nc(N[C@H]3CC[C@H](O)CC3)c3nccn3c2c1)c1ccccc1`, the inhibition is less than 35% in assay [1]; 40.4% in [2]; less than 35% in [3]; less than 35% in assay [4]; less than 35% in assay [5]; less than 35% in assay [6]. Further, the inhibition in [7], in assay [8], in [9], in assay [10] and in assay [11] was less than 35% in each case.

As to `CCC[C@@H](NC(=O)c1ccc2nc(N[C@H]3CC[C@H](O)CC3)c3nccn3c2c1)c1ccccc1`, the inhibition in assay [1], in [2], in assay [3], in assay [4], in [5] and in [6] was less than 35% throughout. Besides, the inhibition in [7], in [8], in [9], in assay [10] and in assay [11] was less than 35% throughout.

As for `C[C@H](NC(=O)c1ccc2nc(N[C@H]3CC[C@H](O)CC3)c3nccn3c2c1)c1ccccc1`, the inhibition in assay [1], in assay [2], in assay [3], in assay [4], in [5] and in assay [6] was less than 35% each time. The inhibition in assay [7], in [8], in [9], in assay [10] and in assay [11] was less than 35% each time.

In the case of `O=C(NC1(c2ccccc2)CC1)c1ccc2nc(N[C@H]3CC[C@H](O)CC3)c3nccn3c2c1`, the inhibition in assay [1], in [2], in assay [3], in assay [4], in [5] and in [6] was less than 35% each time. Also, the inhibition in [7], in [8], in [9], in [10] and in assay [11] was less than 35% in each case.

In the case of `NC(=O)c1ccc2nc(N[C@H]3CC[C@H](O)CC3)c3nccn3c2c1`, the inhibition is less than 35% in [1]; 94.2% in [2]; less than 35% in assay [3]; less than 35% in assay [4]; less than 35% in [5]; less than 35% in [6]. Besides, the inhibition is less than 35% in assay [7]; less than 35% in [8]; less than 35% in assay [9]; 96% in [10]; less than 35% in [11].

With `CC(C)(NC(=O)c1ccc2nc(N[C@H]3CC[C@H](O)CC3)c3nccn3c2c1)c1ccccc1`, the inhibition in [1], in [2], in assay [3], in [4], in assay [5] and in assay [6] was less than 35% in each case. Further, the inhibition in assay [7], in assay [8], in [9], in assay [10] and in assay [11] was less than 35% throughout.

Turning to `O=C(N[C@H](CO)c1ccccc1)c1ccc2nc(N[C@H]3CC[C@H](O)CC3)c3nccn3c2c1`, the inhibition was less than 35% in [1]; 51% in assay [2]; less than 35% in assay [3]; less than 35% in [4]; less than 35% in assay [5]; less than 35% in [6]. Further, the inhibition in assay [7], in [8], in [9], in assay [10] and in assay [11] was less than 35% in each case.

Take `O=C(NC1(Cc2ccc(F)cc2)CC1)c1ccc2nc(N[C@H]3CC[C@H](O)CC3)c3nccn3c2c1`: the inhibition in assay [1], in assay [2], in assay [3], in assay [4], in assay [5] and in assay [6] was less than 35% each time. Further, the inhibition in [7], in assay [8], in assay [9], in assay [10] and in [11] was less than 35% throughout.

With `O=C(NC1(c2ccc(F)cc2)CC1)c1ccc2nc(N[C@H]3CC[C@H](O)CC3)c3nccn3c2c1`, the inhibition in assay [1], in [2], in assay [3], in [4], in [5] and in [6] was less than 35% in each case. Also, the inhibition in assay [7], in [8], in assay [9], in assay [10] and in assay [11] was less than 35% in each case.

The values above are taken from ChEMBL document CHEMBL2417377, “Hit-to-lead optimization and kinase selectivity of imidazo[1,2-a]quinoxalin-4-amine derived JNK1 inhibitors” (Bioorg Med Chem Lett, 2013).
